Results from article PMC4796655, “Structural insights into the methyl donor recognition model of a novel membrane-binding protein UbiG” (Scientific Reports, 2016).

Assays:
Assay type in all cases: binding
Conditions in all cases: read-out: [drawing 1] /
UbiG [1] = target: T1, UbiG (Escherichia coli, UniProt P17993); experiment: isothermal titration calorimetry
T1 construct: full-length, 240 residues, pET28a-UbiG (1-240), expressed in E. coli BL21 (DE3); purified as described previously
T1 sequence (P17993 1-240): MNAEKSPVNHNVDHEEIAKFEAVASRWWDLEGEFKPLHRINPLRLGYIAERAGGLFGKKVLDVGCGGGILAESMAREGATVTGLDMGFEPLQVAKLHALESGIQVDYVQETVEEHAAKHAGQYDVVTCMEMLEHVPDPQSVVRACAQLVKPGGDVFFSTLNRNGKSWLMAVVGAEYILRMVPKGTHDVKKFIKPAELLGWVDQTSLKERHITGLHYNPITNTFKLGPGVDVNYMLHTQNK
Text: (§1) isothermal titration calorimetry on UbiG

UbiG [2] = target: T2, UbiG (Escherichia coli, UniProt P17993, I177A/P182A/V181A); experiment: isothermal titration calorimetry
T2 construct: full-length, 240 residues, pET28a-UbiG (1-240), expressed in E. coli BL21 (DE3); purified as described previously
Text: as §1

UbiG [3] = target: T3, UbiG (Escherichia coli, UniProt P17993, V172A/Y176A); experiment: isothermal titration calorimetry
T3 construct: full-length, 240 residues, pET28a-UbiG (1-240), expressed in E. coli BL21 (DE3); purified as described previously
Text: as §1

UbiG [4] = target: T4, UbiG (Escherichia coli, UniProt P17993, DEL165-187); experiment: isothermal titration calorimetry; X-ray structure of the complex […] Å
T4 construct: full-length, 240 residues, pET28a-UbiG (1-240), expressed in E. coli BL21 (DE3); purified as described previously
T4 sequence (P17993 other isoform, or with tags, fused parts or gaps DEL165-187): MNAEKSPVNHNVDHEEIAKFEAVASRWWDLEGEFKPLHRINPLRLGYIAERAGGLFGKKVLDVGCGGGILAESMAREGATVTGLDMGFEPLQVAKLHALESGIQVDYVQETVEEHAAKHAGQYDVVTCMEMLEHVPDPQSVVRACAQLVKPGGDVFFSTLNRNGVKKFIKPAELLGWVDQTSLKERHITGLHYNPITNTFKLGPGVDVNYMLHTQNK

T2 sequence (P17993 whole entry I177A/V181A/P182A): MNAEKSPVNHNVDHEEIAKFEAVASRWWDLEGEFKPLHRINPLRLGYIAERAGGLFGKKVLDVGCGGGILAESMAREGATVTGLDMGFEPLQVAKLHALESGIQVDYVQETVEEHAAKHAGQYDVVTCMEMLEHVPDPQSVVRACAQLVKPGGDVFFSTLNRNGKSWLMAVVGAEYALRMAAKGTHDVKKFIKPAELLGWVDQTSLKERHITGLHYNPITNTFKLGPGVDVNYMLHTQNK
T3 sequence (P17993 whole entry V172A/Y176A): as the sequence (P17993 whole entry I177A/V181A/P182A) above, with V172A, Y176A, A177I, A181V, A182P counted along it

Work on `Nc1ncnc2c1ncn2[C@@H]1O[C@H](CSCC[C@H](N)C(=O)O)[C@@H](O)[C@H]1O` [SAH] yielded a Kd (UbiG [1]) of 104 ± 17.2 µM, a Kd (UbiG [2]) of 2.77 ± 0.36 µM and a Kd (UbiG [3]) of 3.37 ± 0.84 µM. For the same molecule, the Kd (UbiG [4]) was 1.84 ± 0.16 µM.
